Experimental data as given in US20120134933A1, “USE OF HIGH-DOSES OF MONOMERIC CONTRAST MEDIUM CONTAINING IODINE IN X-RAY DIAGNOSTICS, IN PARTICULAR IN INTERVENTIONAL X-RAY DIAGNOSTICS AND IN RADIATION THERAPY ASSISTED BY CONTRAST MEDIA CONTAINING IODINE” (BAYER PHARMA AKTIENGESELLSCHAFT, priority 2009, published 2012).

Legend:
Assay type in all cases: in vivo, Wistar Han rats
tubular cells = assay: Vacuolization in the kidney 24 hours after injection of XCM (histology of paraffin sections); conditions: rat, 4 g of iodine per kg of BW i.v.; for degree of vacuolization in the kidney (in words): compared among monomeric XCMs
Protocol: (§1) For the study, use was made of the following XCMs, each obtained from their producer. The monomeric XCMs investigated were iopromide 300 (Bayer Vital, Leverkusen), iomeprol 300 (Altana, Konstanz, Germany), and iohexyl 350 (Omnipaque, GE Healthcare, Munich, Germany). For comparison, Isovist 300 (Bayer Vital, Leverkusen) and iodixanol 320 and iodixanol 270 (Visipaque, GE Healthcare, Munich, Germany), two dimeric XCMs, were also included in the study. The XCMs were injected in one dose of 4 g per kg of body weight (BW). As with all toxicological issues, it should be noted that the conversion to the human dose has to be based on body surface area. Thus, 4 g of iodine per kg of BW in the rat correspond to about 0.6 g of iodine per kg of BW in humans.
(§2) Wistar Han (CRL: WI) rats (male; 230-300 g) were obtained from Charles River (Sulzfeld, Germany). The animals were kept under normal laboratory conditions at a temperature of 22° C. and a night/day rhythm of 12 hours. The animals had access to standard feed and water ad libitum. The animals were kept and treated in accordance with the German animal welfare guidelines.
(§3) The respective XCMs were intravenously (i.v.) injected in one dose of 4 g of iodine per kg of BW (corresponds to 0.6 g of iodine per kg of BW in humans) into the tail vein. The XCMs were manually injected as a bolus, followed by a 0.2 ml bolus of saline solution. Each test group consisted of 6 test animals. The iodine concentrations in the kidneys were determined ex vivo by X-ray fluorescence analysis (XFA). 24 hours after the XCM injection, the animals were sacrificed and both kidneys were removed. The kidneys were lysed in 10% KOH, and the iodine concentration in the sample was subsequently determined by XFA. The iodine concentrations in the renal cortex were determined 24 hours after the injection using a 64-slice CT scanner (Sensation 64, Siemens Medical Solutions, Erlangen, Germany). Scanner settings (80 kV, 120 mAseff) were used for all investigations, and the reconstructions were carried out with an image field of 70×70 mm and a thickness of 1 mm The X-ray attenuation in Hounsfield units (HU) was determined in the cortex of the kidney in 3 independent regions of interest (ROI) (FIG. 2). All data were carried out by two independent blinded readers.
To determine the degree of vacuolization, a kidney was removed 24 after the injection of the XCMs and a medial piece of tissue was fixed in formaldehyde and embedded in paraffin. The microtome sections were stained with hematoxylin, and the degree of vacuolization was determined. The determination of the degree of vacuolization was carried out in a blinded experiment by Dr. Haider, Institut für Tierpathologie [Institute for Animal Pathology].

[1] = Renal iodine content 24 hours after injection of XCM, X-ray fluorescence analysis (XFA) of lysed kidneys; conditions: rat, 4 g of iodine per kg of BW i.v., mean +/- SD, 6 animals
Protocol: as §1, §2
as §3, with “The XCMs were manually injected as a bolus, followed by a 0.2 ml bolus of saline solution. Each test group consisted of 6 test animals.” left out, “24 hours after the XCM injection, the animals were sacrificed and both kidneys were removed.” left out

[2] = Renal cortex iodine content 24 hours after injection of XCM, X-ray attenuation by CT; conditions: rat, 4 g of iodine per kg of BW i.v., 80 kV, mean +/- SD, 6 animals
Protocol: as §1, §2
as §3, with “The XCMs were manually injected as a bolus, followed by a 0.2 ml bolus of saline solution. Each test group consisted of 6 test animals.” left out, “24 hours after the XCM injection, the animals were sacrificed and both kidneys were removed.” left out

[3] = of 6 animals, listed as Iopromide 300
[4] = of 6 animals, listed as iopromide

degree of vacuolization in the kidney (in words) (tubular cells) | Moderate degree of vacuolization (number of animals) (tubular cells; of 6 animals) | Slight degree of vacuolization (number of animals) (tubular cells; of 6 animals) | X-ray attenuation in the renal cortex (CT) [2] | Slight degree of vacuolization (number of animals) (tubular cells; of 6 animals, listed as Iomeprol 300) | No vacuolization (number of animals) (tubular cells; [3]) | Slight degree of vacuolization (number of animals) (tubular cells; [3]) | No vacuolization (number of animals) (tubular cells; [4]) | Slight degree of vacuolization (number of animals) (tubular cells; [4]) | SMILES | iodine concentration in the kidney (XFA) [1]
increased vacuolization | 3 | 3 | – | – | – | – | – | – | CC(=O)N(CC(O)CO)c1c(I)c(C(=O)NCC(O)CO)c(I)c(C(=O)NCC(O)CO)c1I (centres unmarked) [iohexyl 350] | –
increased vacuolization | – | all the animals investigated | 45.0+/−5.9 HU | 6 | – | – | – | – | CN(C(=O)CO)c1c(I)c(C(=O)NCC(O)CO)c(I)c(C(=O)NCC(O)CO)c1I (centres unmarked) [iomeprol 300] | 0.738+/−0.098 mg of iodine per g of kidney tissue
lowest degree of vacuolization | – | – | significantly lowest values | – | 2 | 4 | Two | four | COCC(=O)Nc1c(I)c(C(=O)NCC(O)CO)c(I)c(C(=O)N(C)CC(O)CO)c1I (centres unmarked) [iopromide 300, N,N′-bis(2,3-dihydroxypropyl)-2,4,6-triiodo-5-[(methoxyacetyl)amino]-N-methyl-1,3-benzenedicarboxamide] | significantly lowest iodine contents
– | – | – | 217.2+/−29.4 HU | – | – | – | – | – | CN(C(=O)CC(=O)N(C)c1c(I)c(C(=O)NC(CO)C(O)CO)c(I)c(C(=O)NC(CO)C(O)CO)c1I)c1c(I)c(C(=O)NC(CO)C(O)CO)c(I)c(C(=O)NC(CO)C(O)CO)c1I (centres unmarked) [iotrolan 300] | 3.4+/−0.6 mg of iodine per g of kidney tissue
